Assay [1] deals with Rice (Variety: Nipponbare). The assay can be described thus: Test for evaluating promotion of root growth by hydroponics of rice (Test Examples 1-3). The assay is classed as in vivo. As for the experimental part: Rice (Variety: Nipponbare)
(§1) A DMSO solution, which contained one of the compounds 14, 18, 21, 23, 26, 28, 29, 30, 35, 36, 37, 39 and 40 of the present invention at a concentration of 100,000 ppm, was added to Hoagland hydroponic solution (Hoagland and Arnon, California Agricultural Experiment Station 1950 Circular 347 pp. 34) of ¼-fold concentration at a volume ratio of 1/10,000. In this manner, hydroponic solutions containing one of the compounds 14, 18, 21, 23, 26, 28, 29, 30, 35, 36, 37, 39 and 40 of the present invention at 10 ppm were prepared respectively. As an untreated control plot, a hydroponic solution obtained by adding DMSO to Hoagland hydroponic solution of ¼-fold concentration at a volume ratio of 1/10,000 was used.
Rice seeds were soaked in a 1% aqueous sodium hypochlorite solution for 10 minutes, then soaked in a 70% ethanol solution for surface sterilization, and then washed with distilled water. The sterilized seeds were soaked in a hydroponic solution containing the test compound described above at 10 ppm and incubated in a dark place for 3 days at 28° C. to perform treatment for hastening germination.
Thereafter, 30 ml of hydroponic solution containing the test compound at 10 ppm was dispensed in a plastic tube (diameter of 20 mm×height of 113 mm) of which the side was covered with cardboard to block light. A float prepared using a styrene board and vinyl mesh was floated, and the rice seeds that had undergone the treatment for hastening germination were placed on the float on the surface of the hydroponic solution. The seeds were cultivated for 3 days at 26° C., an illuminance of 4,000 lux of the top surface of the tube, a humidity of 50%, and a day length of 16 hours.
The nursery plants of rice obtained after cultivating were measured in terms of the length of seminal root by using WinRHIZO system (manufactured by Regent Instruments Inc). For each test plot, an average of the measured values of the seminal root of 4 or 5 individuals were determined.
as §1, with “compounds 7, 8, 9, 10, 12, 17, 20,” for “compounds 14, 18,”, “21, 25, 27,” for “21, 23, 26,”, “30, 34,” for “30,”, “37, 38,” for “37,”, “of 10,000” for “of 100,000”, “at 1” for “at 10”
Rice seeds were soaked in a 1% aqueous sodium hypochlorite solution for 10 minutes, then soaked in a 70% ethanol solution for surface sterilization, and then washed with distilled water. The sterilized seeds were soaked in a hydroponic solution containing the test compound described above at 1 ppm and incubated in a dark place for 3 days at 28° C. to perform treatment for hastening germination.
Thereafter, 30 ml of hydroponic solution containing the test compound at 1 ppm was dispensed in a plastic tube (diameter of 20 mm×height of 113 mm) of which the side was covered with cardboard to block light. A float prepared using a styrene board and vinyl mesh was floated, and the rice seeds that had undergone the treatment for hastening germination were placed on the float on the surface of the hydroponic solution. The seeds were cultivated for 3 days at 26° C., an illuminance of 4,000 lux of the top surface of the tube, a humidity of 50%, and a day length of 16 hours.
The nursery plants of rice obtained after cultivation were measured in terms of the length of seminal root by using WinRHIZO system (manufactured by Regent Instruments Inc). […]

Assay [2] has as its system Nicotiana benthamiana. Kind of assay: Test for evaluating growth promotion under low-temperature stress by hydroponics of Nicotiana benthamiana (Test Examples 4-6). The assay is classed as in vivo. To be noted: 7 days at 1.5±1.0° C. low-temperature stress, then 3 days at 22° C., green leaf area vs untreated control, read-out: value of a relative leaf area (equation (1)); for relative green leaf area after low-temperature stress at 1 ppm: compound at 1 ppm; for relative green leaf area after low-temperature stress at 0.1 ppm: compound at 0.1 ppm. How it is done: A DMSO solution, which contained one of the compounds 5, 14, 22, 23, 24, 25, 26, 28, 30, 31, 32, 33, 34, 35, 38, 39 and 40 of the present invention at a concentration of 10,000 ppm, was prepared. The DMSO solution of the compound of the present invention was added at a volume ratio of 1/1,000 to the Murashige•Scoog medium of a ½-fold concentration (a medium containing 2.3 g of mixed salts (manufactured by Wako Pure Chemical Industries, Ltd.), 200 mg of Myo-inositol (manufactured by Sigma-Aldrich Co. LLC.), 2 mg of nicotinic acid (manufactured by Wako Pure Chemical Industries, Ltd.), 2 mg of pyridoxine hydrochloride (manufactured by Wako Pure Chemical Industries, Ltd.), 20 mg of thiamine hydrochloride (manufactured by Wako Pure Chemical Industries, Ltd.), 20 g of sucrose (manufactured by Wako Pure Chemical Industries, Ltd.), and 1 g of MES (manufactured by DOJINDO LABORATORIES) per 1 L of water and having pH adjusted to 5.8), thereby preparing a medium containing the compound of the present invention at a concentration of 10 ppm.
Seeds of Nicotiana benthamiana were seeded in the 5 μL of the medium and cultured overnight at 22° C. Thereafter, 45 μL of the medium containing the compound of the present invention at a concentration of 10 ppm was added thereto, and the seeds are cultivated for 7 days at 22° C., an illuminance of 4,000 lux, and a day length of 16 hours, thereby the nursery plants raised from the Nicotiana benthamiana were treated with the compound.
Moreover, instead of the above medium a test plot, which was obtained by performing the same treatment by using a medium prepared by adding DMSO to the Murashige•Scoog medium of ½-fold concentration at a volume ratio of 1/1,000, was used as a control plot not treated with the compound.
The nursery plants of the Nicotiana benthamiana treated with the compound were subjected to low-temperature treatment by being cultivated for 7 days at 1.5±1.0° C., an illuminance of 2,000 lux, and a day length of 16 hours.
The nursery plants of the Nicotiana benthamiana having undergone the low-temperature stress treatment were cultivated for 3 days at 22° C., an illuminance of 4,000 lux, and a day length of 16 hours. Thereafter, the area of green leaf was quantified by Scanalyzer HTS (manufactured by LemnaTec GmbH). Moreover, the value of the control plot not treated with the compound that had not yet been subjected to the low-temperature stress treatment was measured in the same manner. A value of a relative leaf area was calculated based on the following equation (1), and if the value of a relative leaf area was 5 or greater, the compound was evaluated to have a mitigating effect. As a result of the evaluation, it was confirmed that when the plant was treated with one of the compounds 5, 14, 22, 23, 24, 25, 26, 28, 30, 31, 32, 33, 34, 35, 38, 39 and 40 of the present invention at 10 ppm, the value of a relative leaf area was 5 or greater, compared to the area of green leaf of the control plot not treated with compound. Accordingly, it was confirmed that the treatment using the compound of the present invention brings about a growth promotion effect. Relative leaf area=100*(a green area of a plot treated with the compound of the present invention−a green area of a control plot not treated with the compound of the present invention)/(a green area of a control plot not treated with the compound of the present invention that has not yet been subjected to low-temperature stress treatment−a green area of a control plot not treated with the compound of the present invention) Equation (1): […]
A DMSO solution, which contained one of the compounds 6, 7, 8, 11, 12, 15, 19, 23, 24, 25, 28, 30, 31, 33, 34, 36, 37, 38 and 39 of the present invention at a concentration of 1,000 ppm, was prepared. […]

This note sets out measurements from patent US9872493B2, “Method for promoting plant growth” (SUMITOMO CHEMICAL COMPANY, LIMITED, priority 2012, dated 2018).

Regarding `O=C(O)c1cccc2ccsc12` [Compound 6, benzo[b]thiophene-7-carboxylic acid], the “length of seminal root compared with the untreated control plot (in words)” value in assay [1] (0.1 ppm) is “obviously longer”. For the same compound, in assay [2], the relative green leaf area after low-temperature stress at 1 ppm was at least 5%.

`NC(=O)c1cccc2ccsc12` [Compound 7, benzo[b]thiophene-7-carboxamide]: in assay [1] (1 ppm), the “length of seminal root compared with the untreated control plot (in words)” value is “obviously longer”. Also, the relative green leaf area after low-temperature stress at 1 ppm in assay [2] was at least 5%.

As to `COC(=O)c1cccc2cc(C(F)(F)F)sc12` [Compound 10, methyl 2-trifluoromethylbenzo[b]thiophene-7-carboxylate], the “length of seminal root compared with the untreated control plot (in words)” value in assay [1] (1 ppm) was “obviously longer”. Also, in assay [2], the relative green leaf area after low-temperature stress at 0.1 ppm was at least 5%.

In the case of `NC(=O)c1csc2c(C(F)(F)F)cccc12` [Compound 37], the “length of seminal root compared with the untreated control plot (in words)” value in assay [1] (0.1 ppm), in assay [1] (1 ppm) and in assay [1] (10 ppm) was “obviously longer” in each case. Also, the relative green leaf area after low-temperature stress at 1 ppm in assay [2] was at least 5%.

As for `COC(=O)c1csc2c(C(F)(F)F)cccc12` [Compound 35], the “length of seminal root compared with the untreated control plot (in words)” value in assay [1] (0.1 ppm), in assay [1] (1 ppm) and in assay [1] (10 ppm) was “obviously longer” in each case. In addition, the relative green leaf area after low-temperature stress at 0.1 ppm in assay [2] was at least 5%. Also, the relative green leaf area after low-temperature stress at 10 ppm in assay [2] (compound at 10 ppm) is at least 5%.

On to `CCOC(=O)c1csc2c(C(F)(F)F)cccc12` [Compound 36], for which the “length of seminal root compared with the untreated control plot (in words)” value in assay [1] (0.1 ppm), in assay [1] (1 ppm) and in assay [1] (10 ppm) was “obviously longer” throughout. Besides, the relative green leaf area after low-temperature stress at 0.1 ppm in assay [2] is at least 5%. Moreover, in assay [2], the relative green leaf area after low-temperature stress at 1 ppm is at least 5%.

As to `O=C(O)c1c(C(F)(F)F)sc2ccccc12` [Compound 15, 2-trifluoromethylbenzo[b]thiophene-3-carboxylic acid], the “length of seminal root compared with the untreated control plot (in words)” value in assay [1] (0.1 ppm) was “obviously longer”. The relative green leaf area after low-temperature stress at 1 ppm in assay [2] was at least 5%.
